One experiment has as its system pERK level in H358 cells. Briefly: pERK and ERK protein content assay in H358 cells (ELISA). The experiment is classed as cell-based. Particulars: Homo sapiens, NCI-H358, compound 1 μM, 24 h, pERK/ERK ratio compared with DMSO group, read-out: Inhibition rate (%) of pERK level. In a few lines:
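H358 cells grown one day, then treated 24 h with compound at 1 μM. pERK and ERK in lysates measured by ELISA; pERK/ERK ratio expressed as percent inhibition versus DMSO.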

In another experiment the test system is H358 cells. Description: Antiproliferative activity against H358 cells (Cell Titer Glow, ultra-low attachment plate). The settings on record: Homo sapiens, NCI-H358, 72 h, 96-well ultra-low attachment plate, three days after addition of compound, Cell Titer Glow. Format: cell-based. As for the experimental part: 2500 H358 cells were seeded in a 96-well ultra-low attachment plate (corning, 7007). After one day of growth, a serially diluted compound (a maximum concentration of 5 μM, 5-fold dilution, a total of five doses) was added. Three days after the addition of the compound, Cell Titer Glow (Promega, G9681) was added to evaluate pellet growth, and the IC50 value was calculated.
(In general: ATP-based viability assays read luminescence as a measure of living cells.)

From patent US12479843B2, “Spiro ring-containing quinazoline compounds” (WIGEN BIOMEDICINE TECHNOLOGY (SHANGHAI) CO., LTD., priority 2019, dated 2025) come the findings set out here.

The inhibition is the change of the read-out against control, counted positive when it falls. As usually defined, the IC50 is the concentration at which inhibition is half-maximal. Read a high IC50 as weaker potency.

In the case of `C=CC(=O)N1CC2(CCN(c3nc(N4CC5(CC(F)C5)C4)nc4c(OCC(F)(F)F)c(-c5c(C)ccc6[nH]ncc56)c(C5CC5)cc34)CC2)C1` [Compound 284], in the experiment on pERK level in H358 cells, the inhibition at 1 µM is more than 90%. This compound also registered a half-maximal inhibitory concentration (IC50) in the experiment with H358 cells of less than 300 nM.
Regarding `C=CC(=O)N1CC2(CCN(c3nc(N4CC5(CC(C#N)C5)C4)nc4c(OCC(F)(F)F)c(-c5c(C)ccc6[nH]ncc56)c(C5CC5)cc34)CC2)C1` [Compound 285], the inhibition at 1 µM in the experiment with pERK level in H358 cells lay within 50 to 90%. Further, the IC50 in the experiment with H358 cells was 300 to 1000 nM.
Take `C=CC(=O)N1CC2(CCN(c3nc(N4CC5(CC(N(C)C)C5)C4)nc4c(OCC(F)(F)F)c(-c5c(C)ccc6[nH]ncc56)c(C5CC5)cc34)CC2)C1` [Compound 286]: the inhibition at 1 µM in the experiment with pERK level in H358 cells was more than 90%. In addition, in the experiment with H358 cells, the IC50 is less than 300 nM.
Turning to `C=CC(=O)N1CC2(CCN(c3nc(N4CC5(CC(N6CCC6)C5)C4)nc4c(OCC(F)(F)F)c(-c5c(C)ccc6[nH]ncc56)c(C5CC5)cc34)CC2)C1` [Compound 287], the inhibition at 1 µM in the experiment on pERK level in H358 cells is more than 90%. The IC50 in the experiment with H358 cells is less than 300 nM.
For the compound `C=CC(=O)N1CC2(CCN(c3nc(N4CC5(CC(N6CC(C)C6)C5)C4)nc4c(OCC(F)(F)F)c(-c5c(C)ccc6[nH]ncc56)c(C5CC5)cc34)CC2)C1` [Compound 288], the inhibition at 1 µM with pERK level in H358 cells was more than 90%. The same compound displayed an IC50 in the experiment with H358 cells of less than 300 nM.
As for `C=CC(=O)N1CC2(CCN(c3nc(N4CC5(CC(N6CCCC6)C5)C4)nc4c(OCC(F)(F)F)c(-c5c(C)ccc6[nH]ncc56)c(C5CC5)cc34)CC2)C1` [Compound 289], in the experiment on pERK level in H358 cells, the inhibition at 1 µM was more than 90%. The compound further displayed an IC50 in the experiment on H358 cells of less than 300 nM.
For the compound `C=CC(=O)N1CC2(CCN(c3nc(N4CC5(CC(N6CCC[C@@H]6C)C5)C4)nc4c(OCC(F)(F)F)c(-c5c(C)ccc6[nH]ncc56)c(C5CC5)cc34)CC2)C1` [Compound 290], the inhibition at 1 µM in the experiment on pERK level in H358 cells was more than 90%. The compound further showed an IC50 in the experiment with H358 cells of less than 300 nM.
As for `C=CC(=O)N1CC2(CCN(c3nc(N4CC5(CC(N6CCC[C@H]6C)C5)C4)nc4c(OCC(F)(F)F)c(-c5c(C)ccc6[nH]ncc56)c(C5CC5)cc34)CC2)C1` [Compound 291], in the experiment on pERK level in H358 cells, the inhibition at 1 µM was more than 90%. The compound also displayed an IC50 in the experiment on H358 cells of less than 300 nM.
In the case of `C=CC(=O)N1CC2(CCN(c3nc(N4CC5(CC(N6CCC(C)C6)C5)C4)nc4c(OCC(F)(F)F)c(-c5c(C)ccc6[nH]ncc56)c(C5CC5)cc34)CC2)C1` (stereo not drawn) [Compound 292], in the experiment on pERK level in H358 cells, the inhibition at 1 µM was more than 90%. Further, the IC50 in the experiment with H358 cells is less than 300 nM.
As for `C=CC(=O)N1CC2(CCN(c3nc(N4CC5(CC(N6CC[C@@H](C)C6)C5)C4)nc4c(OCC(F)(F)F)c(-c5c(C)ccc6[nH]ncc56)c(C5CC5)cc34)CC2)C1` [Compound 293], the inhibition at 1 µM in the experiment with pERK level in H358 cells is more than 90%. Further, in the experiment on H358 cells, the IC50 is less than 300 nM.
With `C=CC(=O)N1CC2(CCN(c3nc(N4CC[C@H](N5CC(C)C5)C4)nc4c(OCC(F)(F)F)c(-c5c(C)ccc6[nH]ncc56)c(C5CC5)cc34)CC2)C1` [Compound 296], in the experiment with pERK level in H358 cells, the inhibition at 1 µM is more than 90%. The compound also displayed an IC50 in the experiment on H358 cells of less than 300 nM.
Consider `C=CC(=O)N1CC2(CCN(c3nc(N4CC[C@@H](N5CC(C)C5)C4)nc4c(OCC(F)(F)F)c(-c5c(C)ccc6[nH]ncc56)c(C5CC5)cc34)CC2)C1` [Compound 297], for which, in the experiment with pERK level in H358 cells, the inhibition at 1 µM is more than 90%. The IC50 in the experiment on H358 cells was less than 300 nM.
For the compound `C=CC(=O)N1CC2(CCN(c3nc(N4CC[C@H](N5CCC(C)C5)C4)nc4c(OCC(F)(F)F)c(-c5c(C)ccc6[nH]ncc56)c(C5CC5)cc34)CC2)C1` (stereo partly drawn) [Compound 298], the inhibition at 1 µM with pERK level in H358 cells was more than 90%. In the experiment on H358 cells, this compound had an IC50 of less than 300 nM.
As for `C=CC(=O)N1CC2(CCN(c3nc(N4CC[C@H](N5CC[C@@H](C)C5)C4)nc4c(OCC(F)(F)F)c(-c5c(C)ccc6[nH]ncc56)c(C5CC5)cc34)CC2)C1` [Compound 300], the inhibition at 1 µM with pERK level in H358 cells was more than 90%. This compound showed an IC50 with H358 cells of less than 300 nM.
As for `C=CC(=O)N1CC2(CCN(c3nc(N4CC[C@@H](N5CC[C@@H](C)C5)C4)nc4c(OCC(F)(F)F)c(-c5c(C)ccc6[nH]ncc56)c(C5CC5)cc34)CC2)C1` [Compound 301], the inhibition at 1 µM in the experiment on pERK level in H358 cells is more than 90%. Also, in the experiment with H358 cells, the IC50 was less than 300 nM.
